Results from patent US20100069340A1, “PHARMACEUTICAL COMPOSITIONS OF AN SRC KINASE INHIBITOR AND AN AROMATASE INHIBITOR” (Wyeth, priority 2008, published 2010).
Read-outs that look alike come from different tables or passages of the source.

Legend:
MDA-MB-435 (ER neg) = experiment: Cell proliferation assay, MDA-MB-435; assay type: cell-based; conditions: Homo sapiens, MDA-MB-435, 72 h; 3 Day assay, complete medium (10% FCS)
Protocol: (§1) Cell lines were obtained from ATCC. Estrogen was obtained from SIGMA, 4-hydroxytamoxifen was obtained from SIGMA, Bosutinib was used for these studies. Charcoal-stripped serum and phenol red-free medium was obtained from Invitrogen. CellTiter Glo was obtained from Promega.
(§2) Cell cultures. Proliferation assays with cells in complete fetal calf serum were performed with medium containing phenol red. For all assays examining estrogen-dependence, cells were cultured in phenol red-free medium; DMEM/F12 (MCF7), RPMI1640 (MDA-MB-361, T47D) MEM (BT20, MDA-MB-231) McCoys5A modified (SKBR3), Leibowitz' L15 medium supplemented with 10 ng/mL insulin (MDA-MB-435 and MDA-MB-468) with 10% fetal bovine serum supplemented with glutamine and gentamicin. For proliferation assays, trypsinized cells were subjected to three cycles of centrifugation and resuspension in phenol red-free medium supplemented with charcoal stripped medium (5% final), glutamine and Pen/Strep. Cells were plated on day 0, with or without estrogen (10 nM final concentration). On day 1, 4-hydroxytamoxifen and SKI-606 or DMSO were added as a serial dilution. […] After mixing and two hours incubation on the bench, plates were read on an Envision reader. […] The 10 uM data point was dropped for these two lines since there was a clear plateau prior to the sharp drop in luminescence observed at 10 uM compound. […]

clinical = conditions: for AUC: Mean steady state AUC; for Cmax: Mean steady state Cmax
Protocol: A phase 1 single-agent trial of bosutinib to determine the safety, tolerability, and pharmacokinetics of orally administered bosutinib in subjects with advanced-stage, previously treated, solid tumors is currently ongoing. […] Subjects are continued on bosutinib until disease progression, or the occurrence of a significant toxicity considered possibly related to bosutinib. Dosing was started at 50 mg per day. Subsequent dose levels studied have included 100 mg, 200 mg, 300 mg, 400 mg, 500 mg and 600 mg. Safety is assessed for 21 days in 3 to 6 subjects before beginning the cohort at the next incremental dose.

T47D = experiment: Cell proliferation assay (CellTiter Glo), T47D; assay type: cell-based; conditions: Homo sapiens, 168 h, 7 Day assay, charcoal stripped serum, no phenol red
Protocol: as §1, §2

BT-20 (ER neg) = experiment: Cell proliferation assay (CellTiter Glo), BT-20; assay type: cell-based; conditions: for IC50: Homo sapiens, BT-20, 168 h, 7 Day assay, charcoal stripped serum, no phenol red, plateau cell number at 5 μM used
Protocol: as §1
Cell cultures. Proliferation assays with cells in complete fetal calf serum were performed with medium containing phenol red. For all assays examining estrogen-dependence, cells were cultured in phenol red-free medium; DMEM/F12 (MCF7), RPMI1640 (MDA-MB-361, T47D) MEM (BT20, MDA-MB-231) McCoys5A modified (SKBR3), Leibowitz' L15 medium supplemented with 10 ng/mL insulin (MDA-MB-435 and MDA-MB-468) with 10% fetal bovine serum supplemented with glutamine and gentamicin. For proliferation assays, trypsinized cells were subjected to three cycles of centrifugation and resuspension in phenol red-free medium supplemented with charcoal stripped medium (5% final), glutamine and Pen/Strep. Cells were plated on day 0, with or without estrogen (10 nM final concentration). On day 1, 4-hydroxytamoxifen and SKI-606 or DMSO were added as a serial dilution. Cells were incubated for 7 days, after which CellTiter Glo (Promega) was added as recommended by the manufacturer. After mixing and two hours incubation on the bench, plates were read on an Envision reader. […] The 10 uM data point was dropped for these two lines since there was a clear plateau prior to the sharp drop in luminescence observed at 10 uM compound. The IC50 was calculated using a floating minima corresponding to the lowest luminescence value at 5 uM.
Cell proliferation assays were performed in two formats; a three day proliferation assay in fully supplemented medium with phenol red, and a 7 day proliferation assay in phenol red free medium supplemented with charcoal-stripped medium. […] ER positive T47D cells were slightly more sensitive to SKI-606 in the presence of estrogen. BT20 cells were equally sensitive to SKI-606 in stripped serum medium, regardless of whether estrogen was present. […]

[1] = Phase 2 open-label study of bosutinib, safety (TEAEs); assay type: in vivo, human; conditions: 400 mg once-daily, 73 subjects
Protocol: In a phase 2, open-label, study of bosutinib in subjects with advanced or metastatic breast cancer where bosutinib is given at 400 mg once-daily, 73 total patients were randomized. As of 9 Jun. […] All of the responding patients had ER/PgR+ metastatic disease, but were less heavily pretreated with chemotherapy than typical patients and none had received prior endocrine therapy. […] In that trial, the median PFS was 15 weeks for all patients, 15.6 weeks and 14.9 weeks in ER+ and/or PgR+ and ER+ and/or PgR+, HER2-patients subgroups, respectively. There were 51 ER/PgR+ patients enrolled in the trial and a little more than half had received prior endocrine therapy, out of them 33 patients were ER/PgR+, HER2-. The preliminary safety data available for 73 subjects as of 9 Jun. 2008 are consistent with data from other ongoing studies. TEAEs were most frequently associated with gastrointestinal disorders (diarrhea, 66%; nausea, 55%; vomiting, 47%; abdominal pain, 12%; dyspepsia, 10%), general disorders (fatigue, 26%, asthenia, 19%, peripheral oedema, 11%; pyrexia, 10%), infections and infestations (16%), metabolism disorders (ALT increase, 12%; AST increase, 12%, weight loss, 11%; anorexia, 18%), musculoskeletal disorders (anthralgia, 12%; back pain, 12%), headache (14%), and rash (14%). Out of all of these TEAEs, only gastrointestinal disorders (diarrhea, 64%; nausea, 51%; vomiting, 42%; abdominal pain, 10%), general disorders (fatigue, 16%, asthenia, 14%), metabolism disorders (ALT increase, 11%; AST increase, 10%; anorexia, 15%) and rash (10%) were considered at least possibly related to bosutinib.

[2] = 10 nM estrogen, read-out: IC50 (uM) E2
[3] = without estrogen, read-out: IC50 (uM) no E2

## COc1cc(Nc2c(C#N)cnc3cc(OCCCN4CCN(C)CC4)c(OC)cc23)c(Cl)cc1Cl [bosutinib]
MDA-MB-435 (ER neg)
  IC50: 3.4 µM
clinical; human, in vivo, po
  Mean steady state AUC: 3660 ng·h/mL
  Mean steady state Cmax: 200 ng/mL
  Multiple-dose exposure versus single-dose exposure: 2-3 fold
  Tmax: 3 to 6 h
  half-life: 22 to 25 h
  AUC: 2580 ng·h/mL
  Cmax: 157 ng/mL
clinical; human, in vivo, po, 600 mg
  AUC: 3360 ng·h/mL
  Cmax: 208 ng/mL
clinical; in vivo, po
  Dose limiting toxicities observed: nausea, vomiting, diarrhea, and rash
clinical; subjects with multiple-relapsed solid tumors, oral
  protocol-defined maximum tolerable dose: 500 mg daily
T47D; [2]
  IC50: 1.28 µM
T47D; [3]
  IC50: 2.85 µM
BT-20 (ER neg); 10 uM SKI-606, BT20 cells
  toxicity at maximal concentration: some toxicity was seen
BT-20 (ER neg); [2]
  IC50: 0.24 µM
BT-20 (ER neg); [3]
  IC50: 0.28 µM
[1]; all TEAEs
  TEAE ALT increase: 12%
  TEAE AST increase: 12%
  TEAE abdominal pain: 12%
  TEAE anorexia: 18%
  TEAE anthralgia: 12%
  TEAE asthenia: 19%
  TEAE back pain: 12%
  TEAE diarrhea: 66%
  TEAE dyspepsia: 10%
  TEAE fatigue: 26%
  TEAE headache: 14%
  TEAE infections and infestations: 16%
  TEAE nausea: 55%
  TEAE peripheral oedema: 11%
  TEAE pyrexia: 10%
  TEAE rash: 14%
  TEAE vomiting: 47%
  TEAE weight loss: 11%
[1]; related TEAEs
  TEAE ALT increase, at least possibly related to bosutinib: 11%
  TEAE AST increase, at least possibly related to bosutinib: 10%
  TEAE abdominal pain, at least possibly related to bosutinib: 10%
  TEAE anorexia, at least possibly related to bosutinib: 15%
  TEAE asthenia, at least possibly related to bosutinib: 14%
  TEAE diarrhea, at least possibly related to bosutinib: 64%
  TEAE fatigue, at least possibly related to bosutinib: 16%
  TEAE nausea, at least possibly related to bosutinib: 51%
  TEAE rash, at least possibly related to bosutinib: 10%
  TEAE vomiting, at least possibly related to bosutinib: 42%
